Test system: 941728-121-R-J1-PDC complex spheroid viability
Assay: Anticancer human tumor 941728-121-R-J1-PDC patient-derived lung adenocarcinoma cell line growth inhibition [RAS]
Details: for IC50: curve of first compound; for viability, T/C: stronger effect = lower value
Outline: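 Multi-cell-type spheroids: tumor cells plus HUVEC endothelial cells and mesenchymal stem cells. RAS-pathway inhibitors were combined with targeted agents, each dosed in half-log steps down from clinical Cmax, or from 10 microM when Cmax was unknown.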
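Further: spheroids exposed to compounds for 7 days before readout.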
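Wherever viability, T/C is given: 100% = DMSO vehicle control viability.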

C=CC(=O)N1CCN(c2nc(OCC3CCCN3C)nc3c(F)c(-c4nc(N)cc(C)c4C(F)(F)F)c(Cl)cc23)C(C)C1 (centres undefined) + CCn1c(-c2cc(N3CCN(C)CC3)cnc2C(C)OC)c2c3cc(ccc31)-c1csc(n1)CC(NC(=O)C1CC1C)C(=O)N1CCCC(N1)C(=O)OCC(C)(C)C2
IC50 (second compound 0.000949 µM): < 3.16 nM
IC50 (second compound 0.003 µM): < 3.16 nM
IC50 (second compound 0.00949 µM): < 3.16 nM
IC50 (second compound 0.03 µM): < 3.16 nM
IC50 (second compound 0.0949 µM): < 3.16 nM
IC50 (second compound 0.3 µM): < 3.16 nM
viability, T/C (second compound 0.000949 µM, first compound 0.00316 µM): 20.1%
viability, T/C (second compound 0.000949 µM, first compound 0.01 µM): 19.7%
viability, T/C (second compound 0.000949 µM, first compound 0.0316 µM): 14.8%
viability, T/C (second compound 0.000949 µM, first compound 0.1 µM): 18.7%
viability, T/C (second compound 0.000949 µM, first compound 0.316 µM): 20.2%
viability, T/C (second compound 0.000949 µM, first compound 1 µM): 16.2%
viability, T/C (second compound 0.003 µM, first compound 0.00316 µM): 16.9%
viability, T/C (second compound 0.003 µM, first compound 0.01 µM): 15.7%
viability, T/C (second compound 0.003 µM, first compound 0.0316 µM): 14.5%
viability, T/C (second compound 0.003 µM, first compound 0.1 µM): 17.2%
viability, T/C (second compound 0.003 µM, first compound 0.316 µM): 19.6%
viability, T/C (second compound 0.003 µM, first compound 1 µM): 14.6%
viability, T/C (second compound 0.00949 µM, first compound 0.00316 µM): 17.3%
viability, T/C (second compound 0.00949 µM, first compound 0.01 µM): 16.4%
viability, T/C (second compound 0.00949 µM, first compound 0.0316 µM): 17.7%
viability, T/C (second compound 0.00949 µM, first compound 0.1 µM): 18%
viability, T/C (second compound 0.00949 µM, first compound 0.316 µM): 15.6%
viability, T/C (second compound 0.00949 µM, first compound 1 µM): 14.8%
viability, T/C (second compound 0.03 µM, first compound 0.00316 µM): 17.7%
viability, T/C (second compound 0.03 µM, first compound 0.01 µM): 18.3%
viability, T/C (second compound 0.03 µM, first compound 0.0316 µM): 17.5%
viability, T/C (second compound 0.03 µM, first compound 0.1 µM): 16.3%
viability, T/C (second compound 0.03 µM, first compound 0.316 µM): 14%
viability, T/C (second compound 0.03 µM, first compound 1 µM): 17.8%
viability, T/C (second compound 0.0949 µM, first compound 0.00316 µM): 15.6%
viability, T/C (second compound 0.0949 µM, first compound 0.01 µM): 16.7%
viability, T/C (second compound 0.0949 µM, first compound 0.0316 µM): 16.5%
viability, T/C (second compound 0.0949 µM, first compound 0.1 µM): 17.7%
viability, T/C (second compound 0.0949 µM, first compound 0.316 µM): 14.9%
viability, T/C (second compound 0.0949 µM, first compound 1 µM): 19.4%
viability, T/C (second compound 0.3 µM, first compound 0.00316 µM): 17%
viability, T/C (second compound 0.3 µM, first compound 0.01 µM): 17.2%
viability, T/C (second compound 0.3 µM, first compound 0.0316 µM): 17.1%
viability, T/C (second compound 0.3 µM, first compound 0.1 µM): 14.5%
viability, T/C (second compound 0.3 µM, first compound 0.316 µM): 18.5%
viability, T/C (second compound 0.3 µM, first compound 1 µM): 18.2%

CC1(C)CCC(Nc2ncc(C(F)(F)F)c(-c3c[nH]c4c(P(C)(C)=O)c(C#N)ccc34)n2)CN1 (centres undefined) + CCn1c(-c2cc(N3CCN(C)CC3)cnc2C(C)OC)c2c3cc(ccc31)-c1csc(n1)CC(NC(=O)C1CC1C)C(=O)N1CCCC(N1)C(=O)OCC(C)(C)C2
IC50 (second compound 0.000949 µM): < 0.949 nM
IC50 (second compound 0.003 µM): < 0.949 nM
IC50 (second compound 0.00949 µM): < 0.949 nM
IC50 (second compound 0.03 µM): < 0.949 nM
IC50 (second compound 0.0949 µM): < 0.949 nM
IC50 (second compound 0.3 µM): < 0.949 nM
viability, T/C (second compound 0.000949 µM, first compound 0.000949 µM): 26.8%
viability, T/C (second compound 0.000949 µM, first compound 0.003 µM): 28.2%
viability, T/C (second compound 0.000949 µM, first compound 0.00949 µM): 23.5%
viability, T/C (second compound 0.000949 µM, first compound 0.03 µM): 27.3%
viability, T/C (second compound 0.000949 µM, first compound 0.0949 µM): 32.7%
viability, T/C (second compound 0.000949 µM, first compound 0.3 µM): 24.8%
viability, T/C (second compound 0.003 µM, first compound 0.000949 µM): 19.8%
viability, T/C (second compound 0.003 µM, first compound 0.003 µM): 18.5%
viability, T/C (second compound 0.003 µM, first compound 0.00949 µM): 16.6%
viability, T/C (second compound 0.003 µM, first compound 0.03 µM): 22.6%
viability, T/C (second compound 0.003 µM, first compound 0.0949 µM): 19.5%
viability, T/C (second compound 0.003 µM, first compound 0.3 µM): 17.1%
viability, T/C (second compound 0.00949 µM, first compound 0.000949 µM): 14%
viability, T/C (second compound 0.00949 µM, first compound 0.003 µM): 10.3%
viability, T/C (second compound 0.00949 µM, first compound 0.00949 µM): 11.3%
viability, T/C (second compound 0.00949 µM, first compound 0.03 µM): 14.4%
viability, T/C (second compound 0.00949 µM, first compound 0.0949 µM): 12.3%
viability, T/C (second compound 0.00949 µM, first compound 0.3 µM): 12.2%
viability, T/C (second compound 0.03 µM, first compound 0.000949 µM): 10.8%
viability, T/C (second compound 0.03 µM, first compound 0.003 µM): 9.52%
viability, T/C (second compound 0.03 µM, first compound 0.00949 µM): 9.8%
viability, T/C (second compound 0.03 µM, first compound 0.03 µM): 10.9%
viability, T/C (second compound 0.03 µM, first compound 0.0949 µM): 9.73%
viability, T/C (second compound 0.03 µM, first compound 0.3 µM): 11.7%
viability, T/C (second compound 0.0949 µM, first compound 0.000949 µM): 9.88%
viability, T/C (second compound 0.0949 µM, first compound 0.003 µM): 9.37%
viability, T/C (second compound 0.0949 µM, first compound 0.00949 µM): 10%
viability, T/C (second compound 0.0949 µM, first compound 0.03 µM): 11.1%
viability, T/C (second compound 0.0949 µM, first compound 0.0949 µM): 8.77%
viability, T/C (second compound 0.0949 µM, first compound 0.3 µM): 11.9%
viability, T/C (second compound 0.3 µM, first compound 0.000949 µM): 9.86%
viability, T/C (second compound 0.3 µM, first compound 0.003 µM): 9.92%
viability, T/C (second compound 0.3 µM, first compound 0.00949 µM): 9.46%
viability, T/C (second compound 0.3 µM, first compound 0.03 µM): 8.06%
viability, T/C (second compound 0.3 µM, first compound 0.0949 µM): 9.53%
viability, T/C (second compound 0.3 µM, first compound 0.3 µM): 10.4%
